The values below come from ChEMBL document CHEMBL1909046, “DrugMatrix in vitro pharmacology data”.

pIC50: −log10 of the molar value.

Data set [1] in a line: DRUGMATRIX: Tumor Necrosis Factor (TNF), Non-Selective radioligand binding (ligand: [125I] TNF-alpha). In kind it is cell membranes, Membrane. To be noted: u-937; Not Active = under 50% inhibition at 10 µM.
The next data set deals with T1, B2 bradykinin receptor (Homo sapiens, UniProt P30411).
T1 sequence (P30411 whole entry): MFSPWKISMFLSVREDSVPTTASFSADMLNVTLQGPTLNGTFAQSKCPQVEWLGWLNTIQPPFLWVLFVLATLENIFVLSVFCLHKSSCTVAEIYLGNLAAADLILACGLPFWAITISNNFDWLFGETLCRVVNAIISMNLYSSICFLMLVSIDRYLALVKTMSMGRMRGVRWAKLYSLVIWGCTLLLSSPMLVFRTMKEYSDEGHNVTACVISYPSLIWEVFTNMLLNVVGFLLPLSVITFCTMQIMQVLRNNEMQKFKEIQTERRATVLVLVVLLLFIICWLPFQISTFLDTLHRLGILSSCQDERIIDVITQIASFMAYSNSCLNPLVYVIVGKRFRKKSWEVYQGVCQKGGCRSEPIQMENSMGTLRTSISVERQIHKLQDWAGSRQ
It counts as cell membranes, Membrane. To be noted: chem-1.

Data set [2] can be described thus: DRUGMATRIX: Nicotinic Acetylcholine radioligand binding (ligand: [125I] Epibatidine). In kind it is cell membranes, Membrane. The settings on record: imr-32; Not Active = under 50% inhibition at 10 µM.
The target in a further data set is Cytochrome P450 2E1 (Homo sapiens, UniProt P05181). To be noted: bti-tn-5b1-4. Also: in other assays of this panel Not Active means under 50% inhibition at 10 µM.
For data set [3], the target named is Tyrosine-protein kinase Lck (Homo sapiens, UniProt P06239). Put plainly: DRUGMATRIX: Protein Tyrosine Kinase, LCK enzyme inhibition (substrate: Poly(Glu:Tyr)). In kind it is cell-based, Insect cells. To be noted: Not Active = under 50% inhibition at 10 µM; for IC50: insect cells.
A short description of data set [4]: DRUGMATRIX: Phosphodiesterase PDE3 enzyme inhibition (substrate: [3H]cAMP + cAMP). The settings on record: platelet; Not Active = under 50% inhibition at 10 µM. It counts as tissue-based, Homo sapiens.
Data set [5] has as its target Tyrosine-protein kinase Fyn (Homo sapiens, UniProt P06241). The data set is described as follows: biochemical. The settings on record: for IC50: insect cells. In kind it is cell-based, Insect cells.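 As to all read-outs here: enzymatic inhibition of Fyn kinase activity measured with Poly(Glu:Tyr) as the phosphorylation substrate; in other assays of this panel Not Active means under 50% inhibition at 10 µM.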

The term pIC50 denotes −log10 of the IC50, conventionally taken in molar units.

Sequence of Tyrosine-protein kinase Fyn (P06241 whole entry): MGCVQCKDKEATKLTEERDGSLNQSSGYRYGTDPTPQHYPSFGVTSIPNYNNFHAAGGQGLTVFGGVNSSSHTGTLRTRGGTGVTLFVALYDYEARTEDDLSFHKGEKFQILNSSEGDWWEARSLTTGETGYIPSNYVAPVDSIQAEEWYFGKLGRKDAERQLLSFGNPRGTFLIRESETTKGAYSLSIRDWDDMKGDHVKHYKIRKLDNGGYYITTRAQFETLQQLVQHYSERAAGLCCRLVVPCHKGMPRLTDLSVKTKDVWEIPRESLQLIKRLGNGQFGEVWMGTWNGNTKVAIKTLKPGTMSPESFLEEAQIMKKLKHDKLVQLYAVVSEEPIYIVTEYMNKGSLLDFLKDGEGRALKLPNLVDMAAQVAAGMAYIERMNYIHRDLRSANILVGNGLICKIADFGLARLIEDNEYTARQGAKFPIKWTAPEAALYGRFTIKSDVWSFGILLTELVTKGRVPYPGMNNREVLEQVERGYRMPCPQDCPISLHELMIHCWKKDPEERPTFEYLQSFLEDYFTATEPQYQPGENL
Sequence of Tyrosine-protein kinase Lck (P06239 whole entry): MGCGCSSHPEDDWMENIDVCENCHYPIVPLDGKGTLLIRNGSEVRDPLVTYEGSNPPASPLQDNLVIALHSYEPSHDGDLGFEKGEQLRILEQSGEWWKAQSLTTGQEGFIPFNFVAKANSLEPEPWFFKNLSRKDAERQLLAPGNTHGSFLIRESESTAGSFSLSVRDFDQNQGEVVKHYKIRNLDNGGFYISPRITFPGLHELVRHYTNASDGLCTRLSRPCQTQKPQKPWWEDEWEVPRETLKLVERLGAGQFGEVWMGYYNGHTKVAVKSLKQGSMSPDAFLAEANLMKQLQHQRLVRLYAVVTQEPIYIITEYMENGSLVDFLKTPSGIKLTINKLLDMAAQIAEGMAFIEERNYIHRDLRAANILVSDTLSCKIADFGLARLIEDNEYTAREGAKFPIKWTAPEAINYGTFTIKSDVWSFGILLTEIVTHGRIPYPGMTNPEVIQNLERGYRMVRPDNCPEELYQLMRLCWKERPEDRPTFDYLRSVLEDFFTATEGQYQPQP
Sequence of Cytochrome P450 2E1 (P05181 whole entry): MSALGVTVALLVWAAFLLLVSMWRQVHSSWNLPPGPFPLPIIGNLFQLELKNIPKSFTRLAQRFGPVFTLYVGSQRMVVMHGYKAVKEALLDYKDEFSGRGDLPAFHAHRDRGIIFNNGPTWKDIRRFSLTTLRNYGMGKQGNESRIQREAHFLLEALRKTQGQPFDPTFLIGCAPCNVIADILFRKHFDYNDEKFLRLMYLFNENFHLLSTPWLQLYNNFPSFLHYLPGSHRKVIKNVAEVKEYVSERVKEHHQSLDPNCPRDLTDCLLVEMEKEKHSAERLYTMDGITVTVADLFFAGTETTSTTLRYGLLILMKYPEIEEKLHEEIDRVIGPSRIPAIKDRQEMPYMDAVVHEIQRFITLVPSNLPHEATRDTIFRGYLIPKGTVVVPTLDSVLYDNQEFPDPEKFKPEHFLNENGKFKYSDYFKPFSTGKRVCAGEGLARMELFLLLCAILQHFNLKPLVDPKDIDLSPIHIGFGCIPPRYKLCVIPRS

As to `Cc1c(N(C)CS(=O)(=O)[O-])c(=O)n(-c2ccccc2)n1C.[Na+]` [DIPYRONE SODIUM], the IC50 entry (in data set [1]; at B2 bradykinin receptor; in data set [2]; at Cytochrome P450 2E1; in data set [3]; in data set [4]) was “Not Active” each time. Besides, the IC50 result in data set [5] is given as “Not Active”. The Ki result (in data set [1]; in data set [2]; at Cytochrome P450 2E1; in data set [4]) was “Not Active” throughout.

With `CC(CCc1ccc(O)cc1)NCCc1ccc(O)c(O)c1` (configuration not stated) [DOBUTAMINE], the IC50 result (in data set [1]; on B2 bradykinin receptor; in data set [2]; against Cytochrome P450 2E1; in data set [4]) was “Not Active” in each case. For the same compound, the Ki entry (in data set [1]; in data set [2]; on Cytochrome P450 2E1; in data set [4]) was “Not Active” each time. The pIC50 in data set [3] (read-out: IC50) is 5.26; in data set [5] (read-out: IC50), 5.40.

`CCn1cc(C(=O)O)c(=O)c2cc(F)c(N3CCNCC3)nc21` [ENOXACIN]: the IC50 entry (in data set [1]; at B2 bradykinin receptor; in data set [2]; on Cytochrome P450 2E1; in data set [3]; in data set [4]) was “Not Active” throughout. Moreover, the IC50 entry in data set [5] is on record as “Not Active”. Besides, the Ki result (in data set [1]; in data set [2]; on Cytochrome P450 2E1; in data set [4]) was “Not Active” throughout.

Take `CCC(=O)O[C@H]1[C@H](O[C@@H]2[C@@H](C)[C@H](O[C@H]3C[C@@](C)(OC)[C@@H](O)[C@H](C)O3)[C@@H](C)C(=O)O[C@H](CC)[C@@](C)(O)[C@H](O)[C@@H](C)C(=O)[C@H](C)C[C@@]2(C)O)O[C@H](C)C[C@@H]1N(C)C` [ERYTHROMYCIN PROPIONATE]: the IC50 result (in data set [1]; against B2 bradykinin receptor; in data set [2]; at Cytochrome P450 2E1; in data set [3]; in data set [4]) was “Not Active” throughout. In data set [5], the IC50 entry is “Not Active”. For the same compound, the Ki result (in data set [1]; in data set [2]; on Cytochrome P450 2E1; in data set [4]) was “Not Active” each time.

Regarding `C=C(CC)C(=O)c1ccc(OCC(=O)O)c(Cl)c1Cl` [ETHACRYNIC ACID], the IC50 result (in data set [1]; against B2 bradykinin receptor; in data set [2]; on Cytochrome P450 2E1; in data set [3]; in data set [4]) was “Not Active” in each case. The IC50 entry in data set [5] is “Not Active”. The Ki result (in data set [1]; in data set [2]; at Cytochrome P450 2E1; in data set [4]) was “Not Active” in each case.

As to `C#C[C@]1(O)CC[C@H]2[C@@H]3CCc4cc(O)ccc4[C@H]3CC[C@@]21C` [ETHINYL ESTRADIOL], the IC50 result (in data set [1]; against B2 bradykinin receptor; in data set [2]; on Cytochrome P450 2E1; in data set [3]; in data set [4]) was “Not Active” throughout. In data set [5], the IC50 result was “Not Active”. The Ki result (in data set [1]; in data set [2]; at Cytochrome P450 2E1; in data set [4]) was “Not Active” throughout.

As for `OCCO` [ETHYLENE GLYCOL], the IC50 entry (in data set [1]; on B2 bradykinin receptor; in data set [2]; against Cytochrome P450 2E1; in data set [3]; in data set [4]) was “Not Active” in each case. In addition, the IC50 entry in data set [5] was “Not Active”. In addition, the Ki entry (in data set [1]; in data set [2]; on Cytochrome P450 2E1; in data set [4]) was “Not Active” each time.
